This data set is described as follows: metabolic stability in liver microsomes (standard microsomal incubation, LC/MS). The class given is in vitro ADME. The note with it: 10 μM compound, 0.2 μM microsomal cytochrome P450, pH 7.4, 37° C, read-out: % Loss (amount of compound that was metabolically degraded). The method, then: The metabolic stability of the active compounds may be assessed according to the following procedure. A standard microsomal incubation condition is prepared for assessing the rate of metabolism of the active compound in liver microsomes. The microsomal incubation condition comprises 100 mM potassium phosphate buffer (pH 7.4), 10 mM MgCl2, 0.5 mM NADP^+ (nicotinamide adenine dinucleotide phosphate) 4 mM glucose 6 phosphate, 10 unit/mL glucose 6 phosphate dehydrogenase, 0.2 μM microsomal cytochrome P450, and 10 μM active compound. The incubation is started by adding substrate to the reaction mixture that has been preincubated for approximately 3 minutes at 37° C. An aliquot is removed at 0, 1, 2, 5, 10, and 20 minute time points and added to an equal volume of methanol to quench the reaction. The precipitate in the samples is removed by centrifugation and the supernatants are stored at -20° C. The samples are analyzed by standard LC/MS to determine the amount of active compound that has been metabolically degraded.
The compounds illustrated in the chemical formula provided for the Table above were prepared as described in PCT published patent application WO 95/29909, which was published Nov. 9, 1995, entitled "Novel Acyclic And Cyclic Amides As Neurotransmitter Release Enhancers." The compounds illustrated above are pharmaceutically active compounds that enhance the release of neurotransmitters such as acetylcholine, dopamine and serotonin, and therefore are useful for treating Alzheimer's disease, age-associated memory impairment, Parkinson's disease and other central nervous system disorders in mammals, in particular humans. The metabolic stability of the above compounds was assessed according to the procedure described above. The metabolic stability of the above compounds is provided in the above table in the column marked "% Loss" which indicates the amount of compound that was metabolically degraded after 10 minutes in a standard microsomal incubation condition which was prepared as described above.
Background: Liver microsomes are vesicles of endoplasmic reticulum, rich in cytochrome P450 enzymes.

The structures appear in SMILES notation. Bounds are passed on as bounds.

As for `O=C1CC(Cc2ccncc2)(Cc2ccncc2)C(=O)N1C12CC3(F)CC(F)(CC(F)(C3)C1)C2` [F F F], the metabolised at 10 min, 10 µM was found to be 10%.
As for `O=C1CC(Cc2ccncc2)(Cc2ccncc2)C(=O)N1C12CC3CC(CC(C3)C1)C2` [H H H, reference compound], the metabolised at 10 min, 10 µM is over 75%.
The value for `O=C1CC(Cc2ccncc2)(Cc2ccncc2)C(=O)N1C12CC3CC(CC(F)(C3)C1)C2` [F H H] was 75%; that for `O=C1CC(Cc2ccncc2)(Cc2ccncc2)C(=O)N1C12CC3CC(F)(CC(F)(C3)C1)C2` [F F H] was 75%.

Values taken from US6057364A, “Fluoro-substituted adamantane derivatives” (Pfizer Inc, priority 1998, dated 2000).
